Earlier results in patent US20190275119A1, “PROOXIDANT CANCER CHEMO-SUPPRESSORS AND CHEMO-PROTECTORS AND METHODS OF USE RELATED THERETO” (priority 2016, published 2019).

System: tumor cells
Settings: low concentrations (about 10 μM)

For `O=CC=Cc1ccccc1OC(=O)c1ccccc1` [BCA, 2′-benzoyl-oxycinnamaldehyde], the “growth inhibition and apoptosis of tumor cells” value is listed as “inhibit growth and induce apoptosis of tumor cells”.

For `O=CC=Cc1ccccc1O` [HCA, 2′-hydroxycinnamaldehyde], the “growth inhibition and apoptosis of tumor cells” value is given as “inhibit growth and induce apoptosis of tumor cells”.
